Data from PMC3189207, “DomPep—A General Method for Predicting Modular Domain-Mediated Protein-Protein Interactions” (PLoS ONE, 2011).
Residues, ends and D or L forms follow the SMILES beside them.

Legend:
Scrib PDZ-2 domain = target: T1, Scrib PDZ-2 domain (Homo sapiens, UniProt Q14160); test: In-solution fluorescence polarization binding of peptides to Scrib PDZ2; conditions: Kd value of 100 µM applied as binding cutoff, NB without definition, read-out: Kd (µM) PDZ2
T1 construct: ROC curves of DomPep prediction for the three Scrib PDZ-1/2/3 domains
T1 sequence (Q14160 862-950 limits assumed): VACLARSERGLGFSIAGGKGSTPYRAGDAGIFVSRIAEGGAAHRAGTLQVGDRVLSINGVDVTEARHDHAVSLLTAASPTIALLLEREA

Scrib PDZ-1 domain = target: T2, Scrib PDZ-1 domain (Homo sapiens, UniProt Q14160); test: In-solution fluorescence polarization binding of peptides to Scrib PDZ1; conditions: Kd value of 100 µM applied as binding cutoff, NB without definition, read-out: Kd (µM) PDZ1
T2 construct: ROC curves of DomPep prediction for the three Scrib PDZ-1/2/3 domains
T2 sequence (Q14160 728-815 limits assumed): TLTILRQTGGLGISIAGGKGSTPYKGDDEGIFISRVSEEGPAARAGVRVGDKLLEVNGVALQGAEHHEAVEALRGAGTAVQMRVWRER

Row | SMILES | Kd (Scrib PDZ-2 domain) [µM] | Kd (Scrib PDZ-1 domain) [µM]
1 | CC[C@H](C)[C@H](NC(=O)[C@H](CCCNC(=N)N)NC(=O)[C@@H](NC(=O)[C@H](CO)NC(=O)[C@H](CC(C)C)NC(=O)[C@H](C)NC(=O)[C@@H](N)CO)C(C)C)C(=O)N[C@@H](CO)C(=O)N[C@@H](CC(N)=O)C(=O)N[C@H](C(=O)O)C(C)C [KCNJ10] (H-SALSVRISNV-OH) | > 100 | > 100
2 | CC(C)C[C@H](NC(=O)[C@H](CCCNC(=N)N)NC(=O)[C@@H]1CCCN1C(=O)[C@H](Cc1c[nH]cn1)NC(=O)[C@H](CO)NC(=O)[C@@H]1CCCN1)C(=O)N[C@@H](CCC(N)=O)C(=O)N[C@H](C(=O)N[C@@H](Cc1c[nH]cn1)C(=O)N[C@H](C(=O)O)C(C)C)[C@@H](C)O [KIRREL2] (H-PSHPRLQTHV-OH) | > 100 | > 100
3 | CC(C)C[C@H](NC(=O)[C@H](CO)NC(=O)[C@@H](NC(=O)[C@H](CC(=O)O)NC(=O)[C@@H](NC(=O)[C@H](CC(C)C)NC(=O)[C@H](CCC(N)=O)NC(=O)CNC(=O)[C@@H]1CCCN1C(=O)[C@@H](N)CCC(N)=O)C(C)C)[C@@H](C)O)C(=O)O [ANKS4B] (H-QPGQLVDTSL-OH) | > 100 | > 100
4 | CC(C)C[C@H](NC(=O)[C@H](CC(=O)O)NC(=O)[C@@H](NC(=O)[C@H](CO)NC(=O)[C@H](C)NC(=O)[C@H](CCCCN)NC(=O)[C@H](C)NC(=O)[C@@H](NC(=O)[C@H](CC(C)C)NC(=O)[C@@H](N)C(C)C)[C@@H](C)O)[C@@H](C)O)C(=O)O [LPP] (H-VLTAKASTDL-OH) | > 100 | 24.2
5 | CC[C@H](C)[C@H](NC(=O)[C@H](CC(C)C)NC(=O)[C@H](CCC(N)=O)NC(=O)[C@H](CCSC)NC(=O)[C@H](CC(N)=O)NC(=O)[C@H](Cc1ccccc1)NC(=O)[C@@H](N)CO)C(=O)N[C@@H](CO)C(=O)N[C@@H](CCC(N)=O)C(=O)N[C@H](C(=O)O)C(C)C [FAM126B] (H-SFNMQLISQV-OH) | > 100 | > 100
6 | CC(C)C[C@H](NC(=O)[C@H](CC(N)=O)NC(=O)[C@@H](NC(=O)[C@H](CCC(=O)O)NC(=O)[C@H](CC(=O)O)NC(=O)[C@H](Cc1c[nH]c2ccccc12)NC(=O)[C@H](C)NC(=O)[C@@H]1CCCN1C(=O)[C@H](CC(=O)O)NC(=O)[C@@H](N)CC(N)=O)[C@@H](C)O)C(=O)O [b-PIX] (H-NDPAWDETNL-OH) | 16.8 | 5.3
7 | CC[C@H](C)[C@H](NC(=O)[C@@H]1CCCN1C(=O)[C@H](Cc1c[nH]cn1)NC(=O)[C@@H](NC(=O)[C@@H](N)Cc1ccccc1)C(C)C)C(=O)N[C@@H](CC(C)C)C(=O)N[C@@H](CCC(N)=O)C(=O)N[C@@H](CO)C(=O)N[C@@H](C)C(=O)N[C@H](C(=O)O)C(C)C [PRKCA] (H-FVHPILQSAV-OH) | 46 | 17.4
8 | CC(C)C[C@H](NC(=O)[C@H](CC(N)=O)NC(=O)[C@H](CCC(=O)O)NC(=O)CNC(=O)[C@@H]1CCCN1C(=O)[C@H](CCC(N)=O)NC(=O)[C@H](Cc1ccc(O)cc1)NC(=O)[C@H](CCC(N)=O)NC(=O)[C@@H]1CCCN1C(=O)[C@@H](N)CCC(=O)O)C(=O)O [SRC] (H-EPQYQPGENL-OH) | > 100 | > 100
9 | CC(C)C[C@H](NC(=O)[C@@H](NC(=O)[C@H](CC(N)=O)NC(=O)[C@@H](N)CCCNC(=N)N)[C@@H](C)O)C(=O)N[C@@H](Cc1ccc(O)cc1)C(=O)N[C@@H](Cc1ccccc1)C(=O)N[C@@H](CO)C(=O)N[C@H](C(=O)N[C@@H](CC(=O)O)C(=O)N[C@H](C(=O)O)C(C)C)[C@@H](C)O [ABR] (H-RNTLYFSTDV-OH) | 10.4 | 12.5
10 | CC(C)C[C@H](NC(=O)[C@H](CCC(=O)O)NC(=O)[C@@H](NC(=O)[C@H](CC(=O)O)NC(=O)[C@H](Cc1ccc(O)cc1)NC(=O)[C@H](CCCNC(=N)N)NC(=O)[C@H](C)NC(=O)[C@H](CO)NC(=O)[C@@H](N)CCC(N)=O)[C@@H](C)O)C(=O)O [ZO2] (H-QSARYDTEL-OH) | > 100 | 16
11 | CSCC[C@H](NC(=O)CN)C(=O)N[C@@H](CCCCN)C(=O)N[C@@H](CCCNC(=N)N)C(=O)N[C@@H](CC(C)C)C(=O)N[C@H](C(=O)N[C@@H](CO)C(=O)N[C@H](C(=O)N[C@@H](CCCNC(=N)N)C(=O)N[C@@H](CC(C)C)C(=O)O)[C@@H](C)O)[C@@H](C)O [RPS6KA2] (H-GMKRLTSTRL-OH) | 62.7 | > 100
12 | CC(C)C[C@H](NC(=O)[C@@H](N)C(C)C)C(=O)N[C@@H](Cc1ccc(O)cc1)C(=O)N1CCC[C@H]1C(=O)N[C@@H](CCCNC(=N)N)C(=O)N[C@@H](CCC(=O)O)C(=O)NCC(=O)N[C@H](C(=O)N[C@@H](CCC(=O)O)C(=O)N[C@H](C(=O)O)C(C)C)[C@@H](C)O [FOXl1] (H-VLYPREGTEV-OH) | 24.7 | > 100
13 | CC[C@H](C)[C@H](NC(=O)[C@H](CO)NC(=O)[C@H](CO)NC(=O)[C@H](CCC(=O)O)NC(=O)[C@H](C)NC(=O)[C@H](CO)NC(=O)[C@H](C)NC(=O)[C@@H](NC(=O)[C@H](CC(=O)O)NC(=O)[C@@H](N)C(C)C)[C@@H](C)CC)C(=O)O [TANK] (H-VDIASAESSI-OH) | > 100 | 102
14 | CSCC[C@H](NC(=O)[C@H](Cc1ccccc1)NC(=O)[C@H](C)NC(=O)[C@@H](N)Cc1c[nH]c2ccccc12)C(=O)N[C@@H](CCCNC(=N)N)C(=O)N[C@@H](Cc1ccc(O)cc1)C(=O)N[C@@H](CCCNC(=N)N)C(=O)N[C@@H](CCC(N)=O)C(=O)N[C@@H](CCC(N)=O)C(=O)N[C@@H](CC(C)C)C(=O)O [SYNJ2BP] (H-WAFMRYRQQL-OH) | > 100 | > 100
15 | CSCC[C@H](N)C(=O)N[C@@H](CCC(=O)O)C(=O)N[C@@H](CCCNC(=N)N)C(=O)N[C@@H](CC(C)C)C(=O)N[C@@H](CCCNC(=N)N)C(=O)N[C@H](C(=O)N[C@@H](CCC(=O)O)C(=O)N[C@H](C(=O)N[C@@H](CC(=O)O)C(=O)N[C@H](C(=O)O)C(C)C)[C@@H](C)O)C(C)C [ARHGEF16] (H-MERLRVETDV-OH) | 7.7 | 27.5
16 | CC(C)C[C@H](NC(=O)[C@@H](NC(=O)CNC(=O)[C@H](CC(N)=O)NC(=O)[C@H](CCCCN)NC(=O)[C@H](CO)NC(=O)[C@H](CC(=O)O)NC(=O)[C@H](Cc1ccc(O)cc1)NC(=O)[C@@H](N)CCCNC(=N)N)[C@@H](C)O)C(=O)N[C@H](C(=O)O)C(C)C [C11orf52] (H-RYDSKNGTLV-OH) | > 100 | > 100
17 | CC(C)[C@H](NC(=O)[C@H](CO)NC(=O)[C@@H](NC(=O)[C@@H](NC(=O)[C@@H](NC(=O)[C@H](CCCNC(=N)N)NC(=O)[C@@H](NC(=O)[C@H](CCCCN)NC(=O)[C@H](C)NC(=O)[C@@H](N)CO)C(C)C)[C@@H](C)O)C(C)C)[C@@H](C)O)C(=O)O [RASL11B] (H-SAKVRTVTSV-OH) | > 100 | > 100
18 | CC(C)C[C@H](NC(=O)[C@H](CO)NC(=O)[C@H](CO)NC(=O)[C@H](CCC(=O)O)NC(=O)[C@H](Cc1ccc(O)cc1)NC(=O)[C@H](CO)NC(=O)[C@@H](NC(=O)[C@H](C)NC(=O)[C@@H](NC(=O)[C@@H](N)CCCCN)C(C)C)[C@@H](C)O)C(=O)O [STK29] (H-KVATSYESSL-OH) | > 100 | > 100
19 | CSCC[C@H](NC(=O)[C@@H](N)C(C)C)C(=O)N[C@@H](CCCNC(=N)N)C(=O)N[C@@H](CC(C)C)C(=O)N[C@@H](CCC(N)=O)C(=O)N[C@@H](CO)C(=O)N[C@@H](CCC(=O)O)C(=O)N[C@H](C(=O)N[C@@H](CO)C(=O)N[C@H](C(=O)O)C(C)C)[C@@H](C)O [VANGL2] (H-VMRLQSETSV-OH) | – | 21.6
